Read-outs that look alike come from different tables or passages of the source. No end group written: not given here.
How the values were obtained:
Assay in all cases: biochemical
Format in all cases: binding
[1] = target: T1, A*3002 (Homo sapiens, UniProt P04439, D101N/D140H/D185E/E176R/F33S/G80R/H175R/K168Q/Q94H/R138E/R41S/V100E)
[2] = target: HLA-A1 (A*0101) (Homo sapiens, UniProt P04439, A114D/A174V/A182V/D101N/D185E/E176A/E190D/L180R/Q94H/R68K/S129P/T187R/V100A/V91M/W191G)
[3] = target: A*2601 (Homo sapiens, UniProt P04439, A114D/A173T/A270S/D101N/D185E/E277Q/E87N/F33Y/G231S/I121R/I218V/K168Q/L180W/L300P/L318F/P208A/P217A/Q86R/Q94H/R138Q/S129P/T187R/T323A/T345S/V100A/V358M)
[4] = target: A*6801 (Homo sapiens, UniProt P04439, A269V/D185E/E176V/E277Q/E87N/F33Y/G231S/I121M/I166T/I218V/L180W/L300P/L318F/N151K/P208A/P217A/Q86R/R169H/T345S)
[5] = target: A*3301 (Homo sapiens, UniProt P04439, A270S/D185E/E176V/E277Q/E87N/F33T/G231S/H175R/I121M/I218V/I322F/K168Q/K210R/L300P/L318F/M331R/P217A/Q86R/Q94H/R138Q/T323A/T345S/T97I/V358M/Y195H)
[6] = target: HLA-A3.2 (A*0301) (Homo sapiens, UniProt P04439)
[7] = target: T2, A*2902 (Homo sapiens, UniProt P04439, A270S/D101N/D185E/E176V/E277Q/E87Q/F33T/G231S/H175R/I121M/I218V/I322F/K168Q/L300P/L318F/M331R/P208A/P217A/Q86L/T323A/T345S/V100A/V358M)
[8] = target: A31 (A*3101) (Homo sapiens, UniProt P04439, A270S/D185E/E176V/E277Q/F33T/G231S/G80R/H175R/I121M/I218V/I322F/K168Q/L300P/L318F/M331R/P217A/Q94H/R138Q/T323A/T345S/T97I/V358M)
[9] = target: T1, A*3002; remark: listed apart in the source
[10] = target: T2, A*2902; remark: listed apart in the source
[11] = target: HLA-A11 (A*1101) (Homo sapiens, UniProt P04439, A114D/D185E/E176A/F33Y/L180Q/S129P/T187R)

T1 sequence (P04439 whole entry, looked up, the tested form may be a part, stated change not applied): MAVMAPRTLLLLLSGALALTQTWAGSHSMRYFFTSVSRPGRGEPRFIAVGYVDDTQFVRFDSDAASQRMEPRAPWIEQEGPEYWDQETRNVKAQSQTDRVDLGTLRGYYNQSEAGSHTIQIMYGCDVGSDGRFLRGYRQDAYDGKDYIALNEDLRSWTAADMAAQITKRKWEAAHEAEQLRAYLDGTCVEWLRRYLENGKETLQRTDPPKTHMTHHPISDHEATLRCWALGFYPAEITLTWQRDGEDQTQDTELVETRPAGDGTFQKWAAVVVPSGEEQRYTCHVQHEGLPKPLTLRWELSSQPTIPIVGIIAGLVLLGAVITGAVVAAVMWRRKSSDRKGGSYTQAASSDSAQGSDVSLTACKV

## ELDPVDLLCY [Peptide 78.0017]
[1]
  IC50: 12700 nM
[2]
  IC50: 26 nM

## KQNPDIVIY [Peptide 1595.10]
[3]
  IC50: > 20000 nM
[4]
  IC50: > 20000 nM
[5]
  IC50: > 20000 nM
[6]
  IC50: 3800 nM
[7]
  IC50: > 20000 nM
[2]
  IC50: > 20000 nM
[8]
  IC50: 4550 nM
[9]
  IC50: 7.4 nM

## LKEYVLDLY [Peptide 78.0250]
[1]
  IC50: 76 nM
[10]
  IC50: 3310 nM
[2]
  IC50: > 20000 nM

## ESNSLKCLRY [Peptide 1580.26]
[1]
  IC50: 604 nM
[10]
  IC50: 7510 nM
[2]
  IC50: 359 nM

## ATLERTEVY [Peptide 78.0252]
[1]
  IC50: 26 nM
[10]
  IC50: 557 nM
[2]
  IC50: 656 nM

## RFHNIMGRW [Peptide 78.0381]
[1]
  IC50: 27 nM
[10]
  IC50: > 20000 nM
[2]
  IC50: > 20000 nM

## RTDSVILNVLY [Peptide 9012.0162]
[1]
  IC50: 8.5 nM
[10]
  IC50: 954 nM
[2]
  IC50: 14 nM

## RFHSIAGQY [Peptide 78.0376]
[1]
  IC50: 1 nM
[2]
  IC50: > 20000 nM

## VWDIVYIEY [Peptide 9018.0040]
[3]
  IC50: 336 nM
[7]
  IC50: 540 nM
[2]
  IC50: 91 nM
[9]
  IC50: 472 nM

## CC[C@H](C)[C@H](NC(=O)[C@H](CO)NC(=O)[C@@H](NC(=O)[C@@H]1CCCN1C(=O)[C@H](CO)NC(=O)[C@H](Cc1ccc(O)cc1)NC(=O)[C@H](CCSC)NC(=O)[C@@H](N)CCCNC(=N)N)C(C)C)C(=O)N[C@@H](CC(C)C)C(=O)O [Peptide 1605.07]
[3]
  IC50: > 20000 nM
[7]
  IC50: > 20000 nM
[2]
  IC50: > 20000 nM
[9]
  IC50: 44 nM

## WKSLVKHHMY [Peptide 9015.0177]
[3]
  IC50: > 20000 nM
[7]
  IC50: > 20000 nM
[2]
  IC50: > 20000 nM
[9]
  IC50: 148 nM

## RTKNPEIVIY [Peptide 9015.0164]
[3]
  IC50: > 20000 nM
[7]
  IC50: > 20000 nM
[2]
  IC50: > 20000 nM
[9]
  IC50: 12 nM

## ETKKGKAGY [Peptide 9015.0024]
[3]
  IC50: 15 nM
[7]
  IC50: > 20000 nM
[2]
  IC50: > 20000 nM
[9]
  IC50: 2100 nM

## DLDDQLIHLY [Peptide 9018.0022]
[3]
  IC50: 38 nM
[7]
  IC50: 3.7 nM
[2]
  IC50: 4.9 nM
[9]
  IC50: 2.7 nM

## CQDKILEHY [Peptide 1580.23]
[3]
  IC50: > 20000 nM
[7]
  IC50: > 20000 nM
[2]
  IC50: 55 nM
[9]
  IC50: 2600 nM

## LYDQLIHMYY [Peptide 9018.0031]
[3]
  IC50: 4370 nM
[7]
  IC50: 131 nM
[2]
  IC50: 191 nM
[9]
  IC50: 38 nM

## NTPPLVKLWY [Peptide 9015.0170]
[3]
  IC50: 199 nM
[7]
  IC50: 2650 nM
[2]
  IC50: 18400 nM
[9]
  IC50: 9350 nM

## LFTDLRIVY [Peptide 78.0378]
[1]
  IC50: 89 nM
[10]
  IC50: 12 nM

## ETPGIRYQY [Peptide 9015.0017]
[3]
  IC50: 25 nM
[7]
  IC50: > 20000 nM
[2]
  IC50: 9210 nM
[9]
  IC50: 2300 nM

## ETKLGKAGY [Peptide 9015.0023]
[3]
  IC50: 21 nM
[7]
  IC50: > 20000 nM
[2]
  IC50: > 20000 nM
[9]
  IC50: 3900 nM

## NTDILTVTY [Peptide 1593.17]
[1]
  IC50: 2000 nM
[2]
  IC50: 22 nM

## LTDQLIHLY [Peptide 9018.0026]
[3]
  IC50: 432 nM
[7]
  IC50: 178 nM
[2]
  IC50: 0.53 nM
[9]
  IC50: 2.6 nM

## LADQLIHLY [Peptide 9015.0038]
[3]
  IC50: 6090 nM
[7]
  IC50: 1330 nM
[2]
  IC50: 4 nM
[9]
  IC50: 96 nM

## YSDREIIY [Peptide 9012.0096]
[10]
  IC50: > 20000 nM
[2]
  IC50: 93 nM

## YSKVSEFRWY [Peptide 78.0009]
[10]
  IC50: 4510 nM
[2]
  IC50: 539 nM

## ETWETWWTDY [Peptide 9015.0169]
[3]
  IC50: 2.3 nM
[7]
  IC50: 11800 nM
[2]
  IC50: 955 nM
[9]
  IC50: 8650 nM

## VSRDAKGWFY [Peptide 9018.0014]
[3]
  IC50: 64 nM
[7]
  IC50: 17 nM
[2]
  IC50: 14 nM
[9]
  IC50: 3.4 nM

## LSEMIQWAY [Peptide 1580.17]
[3]
  IC50: > 20000 nM
[7]
  IC50: 187 nM
[2]
  IC50: 1.5 nM
[9]
  IC50: 77 nM

## EISNYTDIIY [Peptide 9015.0158]
[3]
  IC50: 59 nM
[7]
  IC50: > 20000 nM
[2]
  IC50: 6020 nM
[9]
  IC50: 2900 nM

## YSRIRELRY [Peptide 78.0253]
[10]
  IC50: 6280 nM
[2]
  IC50: 308 nM

## LYPEPTDLY [Peptide 78.0354]
[1]
  IC50: 1470 nM
[2]
  IC50: > 20000 nM

## ISNYTDTIY [Peptide 9015.0007]
[3]
  IC50: 6100 nM
[7]
  IC50: 141 nM
[2]
  IC50: 104 nM
[9]
  IC50: 36 nM

## GLDDQLIHLY [Peptide 9018.0024]
[3]
  IC50: 1420 nM
[7]
  IC50: 432 nM
[2]
  IC50: 11 nM
[9]
  IC50: 56 nM

## NSLVKHHMY [Peptide 9015.0033]
[3]
  IC50: > 20000 nM
[7]
  IC50: 326 nM
[2]
  IC50: 2030 nM
[9]
  IC50: 451 nM

## STDAALYWY [Peptide 1593.02]
[3]
  IC50: 24 nM
[7]
  IC50: 26 nM
[2]
  IC50: 2.6 nM
[9]
  IC50: 68 nM

## VSDEWRLRRY [Peptide 9018.0016]
[3]
  IC50: 4320 nM
[7]
  IC50: 2580 nM
[2]
  IC50: 62 nM
[9]
  IC50: 47 nM

## QAEQATSNYY [Peptide 78.0022]
[1]
  IC50: 1440 nM
[10]
  IC50: > 20000 nM

## HMDRELHPEY [Peptide 9018.0005]
[3]
  IC50: 6.8 nM
[7]
  IC50: 13 nM
[2]
  IC50: 5.1 nM
[9]
  IC50: 3.6 nM

## LSDISEYRHY [Peptide 1549.45]
[10]
  IC50: 14500 nM
[2]
  IC50: 27 nM

## RFALNPGLL [Peptide 1605.01]
[3]
  IC50: > 20000 nM
[7]
  IC50: > 20000 nM
[2]
  IC50: > 20000 nM
[9]
  IC50: 98 nM

## NSDVKHHMY [Peptide 9018.0010]
[3]
  IC50: 8990 nM
[7]
  IC50: 193 nM
[2]
  IC50: 3.2 nM
[9]
  IC50: 70 nM

## QTDYYGLYY [Peptide 1593.06]
[3]
  IC50: 122 nM
[7]
  IC50: 38 nM
[2]
  IC50: 1.3 nM
[9]
  IC50: 674 nM

## ITDDSDIAY [Peptide 1580.14]
[3]
  IC50: 7470 nM
[7]
  IC50: 2100 nM
[2]
  IC50: 4.2 nM
[9]
  IC50: 3150 nM

## ETWETWWMDY [Peptide 9015.0168]
[3]
  IC50: 2.9 nM
[7]
  IC50: 5120 nM
[2]
  IC50: 91 nM
[9]
  IC50: 601 nM

## LTDDSDIAYY [Peptide 1580.12]
[3]
  IC50: 738 nM
[7]
  IC50: 3980 nM
[2]
  IC50: 6.4 nM
[9]
  IC50: 293 nM

## QTRVLAIERY [Peptide 9015.0156]
[3]
  IC50: 3310 nM
[7]
  IC50: 4180 nM
[2]
  IC50: 6420 nM
[9]
  IC50: 67 nM

## MLETLNNTEY [Peptide 1580.24]
[1]
  IC50: 1120 nM
[2]
  IC50: 36 nM

## RYSTQVDPGY [Peptide 9018.0039]
[3]
  IC50: > 20000 nM
[7]
  IC50: > 20000 nM
[2]
  IC50: 12200 nM
[9]
  IC50: 40 nM

## KLNWASQIY [Peptide 1595.09]
[3]
  IC50: > 20000 nM
[11]
  IC50: 950 nM
[4]
  IC50: > 20000 nM
[5]
  IC50: > 20000 nM
[6]
  IC50: 63 nM
[7]
  IC50: 108 nM
[2]
  IC50: 11300 nM
[8]
  IC50: > 20000 nM
[9]
  IC50: 2.9 nM

## NTLVKHHMY [Peptide 9018.0009]
[3]
  IC50: 7370 nM
[7]
  IC50: 45 nM
[2]
  IC50: 363 nM
[9]
  IC50: 69 nM

## EISNYTDTIY [Peptide 9015.0157]
[3]
  IC50: 32 nM
[7]
  IC50: > 20000 nM
[2]
  IC50: 2340 nM
[9]
  IC50: 7050 nM

## STEWRLRRY [Peptide 9018.0019]
[3]
  IC50: 320 nM
[7]
  IC50: 271 nM
[2]
  IC50: 52 nM
[9]
  IC50: 6.6 nM

## LYDQLIHLY [Peptide 9018.0028]
[3]
  IC50: 69 nM
[7]
  IC50: 249 nM
[2]
  IC50: 177 nM
[9]
  IC50: 21 nM

## HMDREKHPEY [Peptide 9018.0007]
[3]
  IC50: 2760 nM
[7]
  IC50: > 20000 nM
[2]
  IC50: 24 nM
[9]
  IC50: 648 nM

## GYADQLIHLY [Peptide 9018.0025]
[3]
  IC50: 4400 nM
[7]
  IC50: 42 nM
[2]
  IC50: 109 nM
[9]
  IC50: 1.2 nM

— patent publication US9340577B2, “HLA binding motifs and peptides and their uses” (priority 1992, dated 2016)
